Results from US20070196491A1, “DRUG DELIVERY SYSTEMS COMPRISING WEAKLY BASIC DRUGS AND ORGANIC ACIDS” (EURAND, INC., priority 2006, published 2007).
Converted amounts (≈) assume the structure as drawn. Counter-ions that a name gives are not always drawn. Like-named read-outs stand apart in the source and are kept apart here.

Legend:
[1] = intestinal regions; cited from earlier work
[2] = cited from earlier work
[3] = Solubilities of weakly basic drugs in organic acid buffers
[4] = pH 2.14

COc1ccccc1OCCNCC(O)COc1cccc2[nH]c3ccccc3c12 (racemic) [Carvedilol]
solubility (physchem; pH 2.12, aqueous buffer): 2510 µg/mL (≈ 6170 µM)
solubility (physchem; pH 2.28, aqueous buffer): 1360 µg/mL (≈ 3350 µM)
solubility (physchem; pH 2.54, aqueous buffer): 731 µg/mL (≈ 1800 µM)
solubility (physchem; pH 2.94, aqueous buffer): 508 µg/mL (≈ 1250 µM)
solubility (physchem; pH 3.64, aqueous buffer): 121 µg/mL (≈ 298 µM)
solubility (physchem; pH 5.46, aqueous buffer): 105 µg/mL (≈ 258 µM)
solubility (physchem; pH 5.9, aqueous buffer): 28 µg/mL (≈ 68.9 µM)
in vivo absorption within the intestine, decreasing order [1]: jejunum>ileum>colon
aqueous solubility ([2]; above a pH of 9): < 1 µg/mL
aqueous solubility ([2]; at a pH 5): about 100 μg/mL
aqueous solubility ([2]; at a pH of 7): about 23 μg/mL

O=C1CN=C(c2ccccc2Cl)c2cc([N+](=O)[O-])ccc2N1 [Clonazepam]
Solubility (mg/mL) of Clonazepam in Fumaric Acid ([3]; pH of buffer 4.8): 0.0095 mg/mL

OCCN(CCO)c1nc(N2CCCCC2)c2nc(N(CCO)CCO)nc(N3CCCCC3)c2n1 [Dipyridamole]
solubility (in words) ([2]; in dilute acids): soluble
solubility (in words) ([2]; in water, neutral and alkaline buffers): practically insoluble

Cc1nccn1CC1CCc2c(c3ccccc3n2C)C1=O (stereo not shown) [Ondansetron Hydrochloride, Ondansetron hydrochloride]
Solubility of Ondansetron Hydrochloride ([3]; fumaric acid 0.0025 mg/mL, start pH 4.15, end pH 4.33): 26100 µg/mL
Solubility of Ondansetron Hydrochloride ([3]; fumaric acid 0.01 mg/mL, start pH 3.64, end pH 4.05): 26100 µg/mL
Solubility of Ondansetron Hydrochloride ([3]; fumaric acid 0.25 mg/mL, start pH 2.79, end pH 2.75): 26200 µg/mL
Solubility of Ondansetron Hydrochloride ([3]; fumaric acid 1 mg/mL, start pH 2.48, end pH 2.40): 26100 µg/mL
Solubility of Ondansetron Hydrochloride ([3]; fumaric acid 5 mg/mL, start pH 2.13, end pH 2.01): 26900 µg/mL
Solubility of Ondansetron Hydrochloride [4]: 27000 µg/mL
solubility (in words) ([2]; at a pH of 6.8): practically insoluble
solubility (in words) ([2]; at acidic pHs): fairly soluble
